Assay: xn = mol fraction of the nth substance listed
Conditions: for surface tension liquid-gas: Ring tensiometer; for mass density: 101.3 kPa, Liquid

COCCOCCOC [2,5,8-trioxanonane] + O
Conditions | mass density [kg/m3] | surface tension liquid-gas [mN/m]
298.15 K, x1 = 0.0047 | – | 49.27
298.15 K, x1 = 0.0141 | – | 44.11
298.15 K, x1 = 0.0188 | 1002.55 | –
298.15 K, x1 = 0.0279 | – | 42.26
298.15 K, x1 = 0.0456 | – | 39.85
298.15 K, x1 = 0.0543 | 1006.8 | –
298.15 K, x1 = 0.0874 | – | 35.99
298.15 K, x1 = 0.1184 | – | 31.62
298.15 K, x1 = 0.1289 | 1002.43 | –
298.15 K, x1 = 0.1582 | – | 30.69
298.15 K, x1 = 0.1903 | 994.76 | –
298.15 K, x1 = 0.2241 | – | 30.45
298.15 K, x1 = 0.3191 | – | 29.9
298.15 K, x1 = 0.3195 | 978.75 | –
298.15 K, x1 = 0.4068 | 970.55 | –
298.15 K, x1 = 0.4283 | – | 28.69
298.15 K, x1 = 0.4993 | 963.15 | –
298.15 K, x1 = 0.5164 | – | 28.08
298.15 K, x1 = 0.621 | 955.66 | –
298.15 K, x1 = 0.6493 | – | 27.9
298.15 K, x1 = 0.7181 | 950.74 | –
298.15 K, x1 = 0.7841 | – | 26.77
298.15 K, x1 = 0.8097 | 946.27 | –
298.15 K, x1 = 0.8737 | – | 26.29
298.15 K, x1 = 0.9099 | 942.33 | –
298.15 K, x1 = 0.9228 | – | 25.69
298.15 K, x1 = 0.9551 | 940.97 | –
298.15 K, x1 = 0.9704 | – | 25.19
298.15 K, x1 = 1 | 940.01 | 24.56
308.15 K, x1 = 0.0014 | – | 53.47
308.15 K, x1 = 0.0038 | – | 50.51
308.15 K, x1 = 0.0085 | – | 47.12
308.15 K, x1 = 0.0142 | – | 44.72
308.15 K, x1 = 0.0188 | 998.41 | –
308.15 K, x1 = 0.0279 | – | 41.3
308.15 K, x1 = 0.0457 | – | 38.99
308.15 K, x1 = 0.0543 | 1001.43 | –
308.15 K, x1 = 0.0875 | – | 33.65
308.15 K, x1 = 0.12 | – | 32.57
308.15 K, x1 = 0.1289 | 996.23 | –
308.15 K, x1 = 0.1602 | – | 31.09
308.15 K, x1 = 0.1903 | 987.3 | –
308.15 K, x1 = 0.2265 | – | 29.75
308.15 K, x1 = 0.3195 | 970.44 | –
308.15 K, x1 = 0.3217 | – | 29.19
308.15 K, x1 = 0.4068 | 961.72 | –
308.15 K, x1 = 0.4305 | – | 28.79
308.15 K, x1 = 0.4993 | 954.06 | –
308.15 K, x1 = 0.5179 | – | 28.41
308.15 K, x1 = 0.621 | 945.87 | –
308.15 K, x1 = 0.6498 | – | 28.3
308.15 K, x1 = 0.7181 | 940.7 | –
308.15 K, x1 = 0.7831 | – | 27.7
308.15 K, x1 = 0.8097 | 936.34 | –
308.15 K, x1 = 0.8744 | – | 27.58
308.15 K, x1 = 0.9099 | 932.39 | –
308.15 K, x1 = 0.9165 | – | 27.54
308.15 K, x1 = 0.9551 | 931.05 | –
308.15 K, x1 = 0.9645 | – | 27.43
308.15 K, x1 = 1 | 930.03 | 27.65
318.15 K, x1 = 0.0015 | – | 55.76
318.15 K, x1 = 0.0038 | – | 51.77
318.15 K, x1 = 0.0081 | – | 48.33
318.15 K, x1 = 0.0135 | – | 45.61
318.15 K, x1 = 0.0188 | 994.3 | –
318.15 K, x1 = 0.0269 | – | 41.95
318.15 K, x1 = 0.0444 | – | 39.33
318.15 K, x1 = 0.0543 | 996.25 | –
318.15 K, x1 = 0.0857 | – | 34.62
318.15 K, x1 = 0.1091 | – | 28.86
318.15 K, x1 = 0.1289 | 989.1 | –
318.15 K, x1 = 0.156 | – | 26.65
318.15 K, x1 = 0.1903 | 979.79 | –
318.15 K, x1 = 0.2194 | – | 25.34
318.15 K, x1 = 0.3174 | – | 24.45
318.15 K, x1 = 0.3195 | 961.72 | –
318.15 K, x1 = 0.4068 | 952.75 | –
318.15 K, x1 = 0.4248 | – | 24.26
318.15 K, x1 = 0.4993 | 944.64 | –
318.15 K, x1 = 0.511 | – | 24.18
318.15 K, x1 = 0.621 | 936.5 | –
318.15 K, x1 = 0.6513 | – | 23.87
318.15 K, x1 = 0.7181 | 931.28 | –
318.15 K, x1 = 0.7915 | – | 23.64
318.15 K, x1 = 0.8097 | 926.76 | –
318.15 K, x1 = 0.8844 | – | 23.5
318.15 K, x1 = 0.9099 | 922.58 | –
318.15 K, x1 = 0.9137 | – | 23.48
318.15 K, x1 = 0.9547 | – | 23.46
318.15 K, x1 = 0.9551 | 921.12 | –
318.15 K, x1 = 1 | 919.99 | 23.44

— the NIST ThermoML archive (doi:10.1021/je100757w)
